biological target: T1, human ALK5 (Homo sapiens, UniProt P36897); test: ALK5 Enzyme Assay 2 (fluorescence polarisation probe displacement); format: binding; parameters: 6His tagged human ALK5 (residues162-503) was grown and purified from insect cells; 6His; made in house; host or cells: insect cells; conditions: read-out: EAA2: activity (μM) using Enzyme Assay 2
T1 sequence (P36897 162-503): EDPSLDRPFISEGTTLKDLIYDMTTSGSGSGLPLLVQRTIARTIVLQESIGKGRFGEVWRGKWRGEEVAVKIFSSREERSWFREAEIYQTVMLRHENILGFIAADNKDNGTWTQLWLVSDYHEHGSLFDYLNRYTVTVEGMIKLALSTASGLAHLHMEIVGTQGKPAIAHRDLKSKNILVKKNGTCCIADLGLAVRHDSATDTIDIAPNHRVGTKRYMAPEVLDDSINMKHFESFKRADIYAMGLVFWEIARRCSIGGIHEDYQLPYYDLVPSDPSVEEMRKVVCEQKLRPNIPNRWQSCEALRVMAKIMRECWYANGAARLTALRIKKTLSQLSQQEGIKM
Procedure: The ability of a compound to bind and inhibit ALK5 can be measured by its capacity to displace a probe molecule from recombinant ALK5 in an in vitro assay. Provided the probe molecule is derivatised with a fluorescent probe or is fluorescent itself, the binding affinity can be measured using Fluorescence Polarisation (FP). […] Assay measurements were performed in 50 mM HEPES pH7.4, 10 mM MgCl2, 1 mM DTT, 0.01% CHAPS in a final assay volume of 12 μl. Briefly 6 μl of ALK5 protein, final concentration of 3 μg/mL, was added to each well of a 384 well assay plate containing 12 nL of each concentration of test compound dissolved in DMSO. 6 μL of a solution containing an ALK5 FP probe ((2Z)-3-(6-{4-[2-({4-[(6-chloro[1,3]dioxolo[4,5-b]pyridin-7-yl)amino]-5-(1-methylethoxy)quinazolin-7-yl}oxy)ethyl]piperazin-1-yl}-6-oxohexyl)-2-[(2E,4E)-5-(3-ethyl-1,1-dimethyl-6,8-disulfo-1H-benzo[e]indolium-2-yl)penta-2,4-dien-1-ylidene]-1,1-dimethyl-6-sulfo-2,3-dihydro-1H-benzo[e]indole-8-sulfonate), final concentration 50 nM, and ATP, final concentration 1 μM.

| SMILES | IC50 [µM] |
| --- | --- |
| Cc1ccc(Oc2ccnc(Nc3ccc(C(=O)NCCN4CCOCC4)cc3)c2)c(C)n1 [Example 220, 4-{[4-(2,6-Dimethylpyridin-3-yl)oxypyridin-2-yl]amino}-N-(2-morpholin-4-ylethyl)benzamide] | 0.0675 |
| Cc1ccc(Oc2ccnc(Nc3ccc(CO)cc3)c2)c(-c2ccccc2)n1 [Example 152, (4-{[4-(6-Methyl-2-phenylpyridin-3-yl)oxypyridin-2-yl]amino}-phenyl)methanol] | 0.00705 |
| Cc1ccc(Oc2ccnc(Nc3cccc(O)c3)c2)c(C)n1 [Example 126, 3-{[4-(2,6-Dimethylpyridin-3-yl)oxypyridin-2-yl]amino}phenol] | 0.0377 |
| Cc1ccc(Oc2ccnc(Nc3ccc(C(=O)NCCN4CCS(=O)(=O)CC4)cc3)c2)c(C)n1 [Example 215, 4-{[4-(2,6-Dimethylpyridin-3-yl)oxypyridin-2-yl]amino}-N-[2-(1,1-dioxo-1,4-thiazinan-4-yl)ethyl]benzamide] | 0.0362 |
| Cc1cc(Oc2ccnc(Nc3ccc(C(=O)NCCNC(=O)OC(C)(C)C)cc3)c2)c(-c2ccccn2)nc1C [Example 198, tert-Butyl N-{2-[(4-{[4-(5,6-dimethyl-2-pyridin-2-ylpyridin-3-yl)oxypyridin-2-yl]amino}benzoyl)amino]ethyl}carbamate] | 0.0147 |
| Cc1ccc(Oc2ccnc(Nc3ccccn3)c2)c(C)n1 [Example 153, 4-(2,6-Dimethylpyridin-3-yl)oxy-N-pyridin-2-ylpyridin-2-amine] | 0.0238 |
| Cc1ccc(Oc2ccnc(Nc3ccccn3)c2)c(-c2ccco2)n1 [Example 161, 4-[2-(Furan-2-yl)-6-methylpyridin-3-yl]oxy-N-pyridin-2-yl-pyridin-2-amine] | 0.00855 |
| Cc1ccc(Oc2ccnc(Nc3ccccn3)c2)c(-c2ccccn2)n1 [Example 145, 4-(6-Methyl-2-pyridin-2-ylpyridin-3-yl)oxy-N-pyridin-2-yl-pyridin-2-amine] | 0.00825 |
| COc1ccc(-c2nc(C)ccc2Oc2ccnc(Nc3cc(OC)c(OC)c(OC)c3)c2)cc1 [Example 168, 4-[2-(4-Methoxyphenyl)-6-methylpyridin-3-yl-oxy]-N-(3,4,5-trimethoxyphenyl)pyridin-2-amine] | 0.0228 |
| COc1cc(Nc2cc(Oc3ccc(C)nc3N3CCCC3)ccn2)cc(OC)c1OC [Example 164, 4-(6-Methyl-2-(pyrrolidin-1-yl)pyridin-3-yloxy)-N-(3,4,5-trimethoxyphenyl)pyridin-2-amine] | 0.0275 |
| COCCCNS(=O)(=O)c1ccc(Nc2cc(Oc3ccc(C)nc3C)ccn2)cc1 [Example 109, 4-{[4-(2,6-Dimethylpyridin-3-yl)oxypyridin-2-yl]amino}-N-(3-methoxypropyl)benzenesulfonamide] | 0.269 |
| COCC(C)NS(=O)(=O)c1ccc(Nc2cc(Oc3ccc(C)nc3C)ccn2)cc1 (stereo not drawn) [Example 118, 4-{[4-(2,6-Dimethylpyridin-3-yl)oxypyridin-2-yl]amino}-N-(1-methoxypropan-2-yl)benzenesulfonamide] | 0.155 |
| Cc1ccc(Oc2ccnc(Nc3ccc(S(=O)(=O)NC4CCC4)cc3)c2)c(C)n1 [Example 113, N-Cyclobutyl-4-{[4-(2,6-dimethylpyridin-3-yl)oxypyridin-2-yl]-amino}benzenesulfonamide] | 0.288 |
| Cc1ccc(Oc2ccnc(Nc3ccc(S(=O)(=O)NCCN4CCN(C)CC4)cc3)c2)c(C)n1 [Example 133, 4-{[4-(2,6-Dimethylpyridin-3-yl)oxypyridin-2-yl]amino}-N-[2-(4-methylpiperazin-1-yl)ethyl]benzenesulfonamide] | 0.0932 |
| Cc1ccc(Oc2ccnc(Nc3ccccc3)c2)c(C(=O)NCC2CC2)n1 [Example 93, 3-(2-Anilinopyridin-4-yl)oxy-N-(cyclopropylmethyl)-6-methyl-pyridine-2-carboxamide] | 0.154 |
| Cc1ccc(Oc2ccnc(Nc3cccc(CO)c3)c2)c(C)n1 [Example 174, (3-{[4-(2,6-Dimethylpyridin-3-yl)oxypyridin-2-yl]amino}phenyl)-methanol] | 0.0113 |
| Cc1ccc(Oc2ccnc(Nc3cccc(CN4CCN(C(=O)CC(N)=O)CC4)c3)c2)c(C)n1 [Example 187, 3-{4-[(3-{[4-(2,6-Dimethylpyridin-3-yl)oxypyridin-2-yl]amino}phenyl)methyl]piperazin-1-yl}-3-oxopropanamide] | 0.0232 |

| SMILES | IC50 [µM] |
| --- | --- |
| COc1cc(Nc2cc(Oc3ccc(C)nc3-c3cncnc3)ccn2)cc(OC)c1OC [Example 173, 4-(6-Methyl-2-pyrimidin-5-ylpyridin-3-yl)oxy-N-(3,4,5-trimethoxyphenyl)pyridin-2-amine] | 0.0966 |
| Cc1ccc(Oc2ccnc(Nc3ccc(CC#N)cc3)c2)c(-c2ccc(F)cc2)n1 [Example 155, 2-[4-({4-[2-(4-Fluorophenyl)-6-methylpyridin-3-yl]oxypyridin-2-yl}amino)phenyl]acetonitrile] | 0.0816 |
| Cc1ccc(Oc2ccnc(Nc3cccc(C(=O)NC4CC4)c3)c2)c(C)n1 [Example 194A, N-Cyclopropyl-3-{[4-(2,6-dimethylpyridin-3-yl)oxypyridin-2-yl]-amino}benzamide] | 0.0457 |
| Cc1cc(Oc2ccnc(Nc3ccc(OCCNC(=O)OC(C)(C)C)cc3)c2)c(-c2ccccn2)nc1C [Example 195, tert-Butyl N-[2-(4-{[4-(5,6-dimethyl-2-pyridin-2-ylpyridin-3-yl)-oxypyridin-2-yl]amino}phenoxy)ethyl]carbamate] | 0.0121 |
| Cc1ccc(Oc2ccnc(Nc3cccc(CN4CCN(C(=O)CCNC(=O)OC(C)(C)C)CC4)c3)c2)c(C)n1 [Example 208, tert-Butyl N-(3-{4-[(3-{[4-(2,6-dimethylpyridin-3-yl)oxypyridin-2-yl]amino}phenyl)methyl]piperazin-1-yl}-3-oxopropyl)carbamate] | 0.0204 |
| Cc1ccc(Oc2ccnc(Nc3ccc(C(=O)NCCN4CCCCC4)cc3)c2)c(C)n1 [Example 217, 4-{[4-(2,6-Dimethylpyridin-3-yl)oxypyridin-2-yl]amino}-N-(2-piperidin-1-ylethyl)benzamide] | 0.0121 |
| Cc1cc(Oc2ccnc(Nc3ccc(OCC(O)CNC(C)C)cc3)c2)c(-c2ccccn2)nc1C (stereo not drawn) [Example 75, 1-(4-{[4-(5,6-Dimethyl-2-pyridin-2-ylpyridin-3-yl)oxypyridin-2-yl]-amino}phenoxy)-3-(propan-2-ylamino)propan-2-ol] | 0.0136 |
| Cc1ccc(Oc2ccnc(Nc3ccc(C(=O)NCCn4cccn4)cc3)c2)c(C)n1 [Example 140, 4-{[4-(2,6-Dimethylpyridin-3-yl)oxypyridin-2-yl]amino}-N-(2-pyrazol-1-ylethyl)benzamide] | 0.0208 |
| Cc1ccc(Oc2ccnc(Nc3ccc(S(=O)(=O)N4CCCCC4)cc3)c2)c(C)n1 [Example 115, 4-(2,6-Dimethylpyridin-3-yl)oxy-N-(4-piperidin-1-ylsulfonyl-phenyl)pyridin-2-amine] | 5.41 |
| Cc1ccc(Oc2ccnc(Nc3ccccc3)c2)c(C(=O)NCCc2ccccc2)n1 [Example 95, 3-(2-Anilinopyridin-4-yl)oxy-6-methyl-N-phenethylpyridine-2-carboxamide] | 0.0209 |
| Cc1ccc(Oc2ccnc(Nc3cccc(CN4CCN(C(=O)OC(C)(C)C)CC4)c3)c2)c(C)n1 [Example 207, tert-Butyl 4-[(3-{[4-(2,6-dimethylpyridin-3-yl)oxypyridin-2-yl]-amino}phenyl)methyl]piperazine-1-carboxylate] | 0.0384 |
| Cc1ccc(Oc2ccnc(Nc3cccc(C(=O)N4CC[C@@H](S(C)(=O)=O)C4)c3)c2)c(C)n1 (single isomer, unassigned) [Example 139] | 0.0495 |
| Cc1ccc(Oc2ccnc(Nc3ccc(C(=O)NCCN4CCCC4=O)cc3)c2)c(C)n1 [Example 141, 4-{[4-(2,6-dimethylpyridin-3-yl)oxypyridin-2-yl]amino}-N-[2-(2-oxopyrrolidin-1-yl)ethyl]benzamide] | 0.0693 |
| Cc1cc(Oc2ccnc(Nc3cccc(CN4CCN(C)CC4)c3)c2)c(-c2ccccn2)nc1C [Example 78, 4-(5,6-Dimethyl-2-pyridin-2-ylpyridin-3-yl)oxy-N-{3-[(4-methyl-piperazin-1-yl)methyl]phenyl}pyridin-2-amine] | 0.0384 |
| Cc1ccc(Oc2ccnc(Nc3ccc(C(=O)NCCNS(=O)(=O)N(C)C)cc3)c2)c(C)n1 [Example 142, 4-{[4-(2,6-Dimethylpyridin-3-yl)oxypyridin-2-yl]amino}-N-[2-(dimethylsulfamoylamino)ethyl]benzamide] | 0.0506 |
| CC(=O)N(C)c1ccc(Nc2cc(Oc3ccc(C)nc3C)ccn2)cc1 [Example 122, N-(4-{[4-(2,6-Dimethylpyridin-3-yl)oxypyridin-2-yl]amino}-phenyl)-N-methylacetamide] | 0.215 |

Source: patent publication US20090048269A1 (AstraZeneca AB, priority 2007, published 2009)
